One assay deals with HIV. As to the kind of experiment: Anti-HIV activity (HeLa-CD4 cells, β-gal reporter assay). In kind it is cell-based. As to conditions: Human immunodeficiency virus 1, 72 h, concentration to inhibit HIV infection by 50%, 3 days, luminescence. As to the method:
A HeLa-CD4 cell suspension (2.5×10^4 cell/well) was dispensed to each well on an assay plate. After incubating at 37° C. for 1 hour under condition of 5% CO2, a solution to dilute a compound (50 μL) was added to each well (provided that a cell control was excluded). A culture solution (50 μL) was added to a well of the cell control. The plate was incubated at 37° C. for 3 days under condition of 5% CO2.
After the culture solution was aspirated from each well, 100 μL of a cell lysate of the reporter assay kit—β gal—was added to all wells, and then the plate was frozen at −80° C. to completely lyse cells. The plate was left at room temperature to unfreeze the cell lysate, it was centrifuged at 1200 rpm for 5 minutes at room temperature (Kubota centrifuge KR-600P). 20 μL of the supernatant was dispensed from each well to 96-well black plate, 100 μL of a luminescent reagent of the reporter assay kit—β gal—was added to each well. The plate was incubated at room temperature for 1 hour. The luminescence intensity from each well was measured by MicroBeta TRILUX instrument (PerkinElmer). A concentration (conc.) to inhibit HIV infection by 50% was calculated to obtain an EC50 value.
In general terms: A reporter such as luciferase makes a cellular process visible.

Another assay addresses HIV integrase (Human immunodeficiency virus type 1 group M subtype B, UniProt P04585). The assay is described as follows: Integrase inhibitory activity (strand transfer ELISA on streptavidin plates). The format is biochemical. Particulars: integrase inhibition rate, absorbance OD 405 nm. As to the method: By the same method as that described in Experimental Example 1 of Patent Document 2, a substrate DNA solution (2 μmol/μl) and a target DNA solution (5 μmol/μl) were prepared. […] Each sequence of a substrate DNA and a target DNA is as described in the same Experimental Example.
(2) Measurement of Inhibition Rate (IC50 Value)
Onto Immobilizer—Streptavidin Plates (manufactured by NUNC) was added 50 μl of a substrate DNA solution (2 μmol/μl). After adsorbing at room temperature for 60 minutes under shaking, it was washed with a phosphate buffer two times.
Then, to each well prepared as described above were added 12 μl of a buffer (composition: 150 mM MOPS (pH7.2), 75 mM MnCl2, 50 mM 2-mercaptoethanol, 25% glycerol, 500 μg/ml bovine serum albumin-fraction V), and 51 μl of a reaction solution prepared from 39 μl of distilled water. Then, 9 μl of an integrase solution (30 μmol) was added, and the mixture was mixed well. To a well as a negative control (NC) was added 9 μl of a diluting solution (composition: 20 mM MOPS (pH 7.2), 400 mM potassium glutamate, 1 mM EDTA, 0.1% NP-40, 20% glycerol, 1 mM DTT, 4 M urea), and this was mixed well using a plate mixer.
After the plate was incubated at 30° C. for 60 minutes, the reaction solution was discarded, followed by washing with 200 μl of a washing buffer (composition: 150 mM MOPS (pH 7.2), 50 mM 2-mercaptoethanol, 25% glycerol, 500 μg/ml bovine serum albumin-fraction V) three times.
Then, to each well were added 12 μl of a buffer (composition: 150 mM MOPS (pH 7.2), 75 mM MgCl2, 50 mM 2-mercaptoethanol, 25% glycerol, 500 μg/ml bovine serum albumin-fraction V), and 53 μl of a reaction solution prepared from 41 μl of distilled water. Further, 6 μl of a solution of a test compound in DMSO was added to each well, and 6 μl of DMSO was added to a well as a positive control (PC), followed by mixing well using a plate mixer. After the plate was incubated at 30° C. for 60 minutes, 1 μl of a target DNA (5 μmol/μl) was added, and this was mixed well using a plate mixer.
After each plate was incubated at 30° C. for 10 minutes, the reaction solution was discarded, followed by washing with a phosphate buffer two times. Then, an anti-digoxigenin antibody labeled with alkaline phosphatase (sheep Fab fragment: manufactured by Boehringer) was diluted 2000-fold with an antibody diluting solution, 100 μl of the diluent was added to bind at 30° C. for 1 hour, and this was washed successively with a phosphate buffer containing 0.05% Tween 20 two times, and a phosphate buffer two times. […]
C abs.: Absorbance of well of compound
NC abs.: Absorbance of NC
PC abs.: Absorbance of PC
(In general: An ELISA detects its analyte on a solid surface through an enzyme-linked reagent.)

Take `C[C@@H]1CCO[C@H]2Cn3cc(C(=O)NCc4nccs4)c(=O)c(O)c3C(=O)N12` [Compound A-12]: a half-maximal effect in the assay on HIV (EC50) was put at 32 nM.

With `C[C@@H]1CCO[C@H]2Cn3cc(C(=O)NC(c4ccccc4)c4ccccc4)c(=O)c(O)c3C(=O)N12` [Compound A-15], in the assay on HIV, the midpoint of the response, the EC50, lay at 16 nM.

On to `C[C@@H]1CCO[C@H]2Cn3cc(C(=O)NCc4cc5ccccc5s4)c(=O)c(O)c3C(=O)N12` [Compound A-20], for which the EC50 (commonly the midpoint of the concentration-response curve) with HIV was 11 nM. Further, half-maximal inhibition on HIV integrase (IC50) required 28.4 nM.

With `C[C@@H]1CCO[C@H]2Cn3cc(C(=O)NC[C@@H]4CCCO4)c(=O)c(O)c3C(=O)N12` [Compound A-21], the EC50 with HIV worked out at 25 nM.

With `C[C@@H]1CCO[C@H]2Cn3cc(C(=O)NNC(=O)c4ccc(F)cc4)c(=O)c(O)c3C(=O)N12` [Compound A-38], the midpoint of the response in the assay with HIV, the EC50, lay at 15 nM.

`C[C@@H]1CCO[C@H]2Cn3cc(C(=O)NCc4cccs4)c(=O)c(O)c3C(=O)N12` [Compound A-39]: the midpoint of the response in the assay on HIV, the EC50, lay at 11 nM. Also, inhibition on HIV integrase was half-maximal at 27 nM (IC50).

For the molecule `C[C@@H]1CCO[C@H]2Cn3cc(C(=O)NCc4ccoc4)c(=O)c(O)c3C(=O)N12` [Compound A-41], the response in the assay with HIV was half-maximal at 42 nM (EC50).

The molecule `C[C@@H]1CCO[C@H]2Cn3cc(C(=O)NCCC4CCCCC4)c(=O)c(O)c3C(=O)N12` [Compound A-42] returned an EC50 in the assay on HIV of 46 nM.

Take `C[C@@H]1CCO[C@H]2Cn3cc(C(=O)NCC4CCCCCC4)c(=O)c(O)c3C(=O)N12` [Compound A-50]: a half-maximal response in the assay on HIV (EC50) required 32 nM. Moreover, the IC50 (in general, the point on the concentration scale where inhibition reaches its midpoint) against HIV integrase was 13.5 nM.

`C[C@@H]1CCO[C@H]2Cn3cc(C(=O)NCc4ccsc4)c(=O)c(O)c3C(=O)N12` [Compound A-56]: in the assay on HIV, it took 6.4 nM to reach a half-maximal effect (EC50). At HIV integrase, this molecule yielded an IC50 of 29.7 nM.

For the molecule `C[C@@H]1CCO[C@H]2Cn3cc(C(=O)NCCc4cccs4)c(=O)c(O)c3C(=O)N12` [Compound A-65], in the assay with HIV, the midpoint of the response, the EC50, lay at 22 nM.

In turn, `C[C@@H]1CCO[C@H]2Cn3cc(C(=O)NCc4nc5ccccc5s4)c(=O)c(O)c3C(=O)N12` [Compound A-66] returned an EC50 in the assay with HIV of 38 nM.

(Values after patent US9216995B2, “Pyridone derivative having integrase inhibitory activity” (SHIONOGI & CO., LTD., priority 2010, dated 2015).)
